Counter-ions that a name gives are not always drawn.

The subject of test [1] is carrageenin-induced paw edema. Description: Anti-inflammatory activity: inhibition of carrageenin-induced paw edema in rats. The conditions noted are these: po, read-out: Percent inhibition of edema; for inhibition in vivo at 100 mg/kg: 100 mg/kg p.o., rat, 3 hours after carrageenin. It is filed as in vivo, rat (S.D. strain, male). The procedure: (1) Anti-inflammatory activity:inhibition of carrageenin-induced paw edema in rats The compound was tested for the above activity according to the method of Winter et al. [Proc. Soc. […] One hour after the test compound was orally given to the animal, 0.1 ml of 1% carrageenin solution was subcutaneously injected into the right footpad. The paw volume was measured 3 hours thereafter, and the resulting increase in the volume was calculated based on the volume before the injection of carrageenin solution. The percent inhibition was determined in comparison with the increase in the control group.
On the technique in general: In the carrageenan paw model, swelling and tenderness develop within hours.

Test [2] addresses T1, 5-lipoxygenase (Cavia porcellus, UniProt A0A286X958).
T1 construct: endogenous in cells; host or cells: guinea pig peritoneal exudate cells (casein-elicited), intact cell suspension
T1 sequence (A0A286X958 1-674): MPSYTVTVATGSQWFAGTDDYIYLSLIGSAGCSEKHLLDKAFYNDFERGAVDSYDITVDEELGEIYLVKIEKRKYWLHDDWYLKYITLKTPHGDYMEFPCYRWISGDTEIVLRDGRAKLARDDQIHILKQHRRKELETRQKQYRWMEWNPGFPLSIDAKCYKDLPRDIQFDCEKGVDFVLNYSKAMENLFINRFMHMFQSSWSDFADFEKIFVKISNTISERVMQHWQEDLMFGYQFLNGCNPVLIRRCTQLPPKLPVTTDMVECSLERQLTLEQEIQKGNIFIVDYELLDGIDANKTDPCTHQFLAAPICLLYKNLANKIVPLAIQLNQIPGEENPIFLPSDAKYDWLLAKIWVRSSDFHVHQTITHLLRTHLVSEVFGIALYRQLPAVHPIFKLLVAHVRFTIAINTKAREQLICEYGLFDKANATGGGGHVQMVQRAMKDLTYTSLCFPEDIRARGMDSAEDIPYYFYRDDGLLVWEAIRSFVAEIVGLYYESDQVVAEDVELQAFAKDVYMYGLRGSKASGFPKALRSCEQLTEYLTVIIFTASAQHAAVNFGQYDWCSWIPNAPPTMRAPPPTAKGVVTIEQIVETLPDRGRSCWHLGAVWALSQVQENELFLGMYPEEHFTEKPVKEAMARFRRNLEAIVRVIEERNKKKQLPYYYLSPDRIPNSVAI
Description: 5-Lipoxygenase inhibitory activity (5-HETE formation in guinea pig peritoneal exudate cells). It is filed as cell-based. As to conditions: read-out: Percent inhibition of 5-lipoxygenase. Here is the method:
(J. Biol. Chem., 256, 4156 (1981)) and to the method of Ochi et al. (J. Biol. Chem., 258, 5754 (1983). More specifically, 2% casein was intraperitoneally given to a guinea pig, which was bleeded to death 14 to 16 hours thereafter. The peritoneal cavity was washed to collect exudate cells, which were suspended in a phosphate buffer containing 1 mM CaCl2 and 5.5 mM glucose to a concentration of 2.5×10^7 cells/ml. The cell suspension was incubated at 30° C. for 2 minutes. The test compound was then added to the cell suspension, followed by incubation for 2 minutes. With addition of 10 μM of A23187 first and then 10 μM of ^14 C-arachidonic acid to the resulting suspension. Then, the suspension was incubated for 3 minutes. […] The arachidonic acid, 5(S)-hydroxy-6,8,11,14-eicosatetraenoic acid (5-HETE) and other portions were thereafter scraped off, and ^14 C was counted by a scintillator.

With `CC(C)(C)c1cc(Nc2ccccc2)cc(C(C)(C)C)c1O` [2,6-di-tert-butyl-4-phenylaminophenol, reference compound], the inhibition in vivo at 100 mg/kg in test [1] is 62%. Moreover, in test [2], the inhibition (usually the percentage by which the read-out fell short of the control) at 1 µM is 2% and the inhibition at 10 µM was 62%. Consider `CC(C)(C)c1cc(Nc2ccc(F)cc2)cc(C(C)(C)C)c1O` [Compound 1, 2,6-di-tert-butyl-4-(4-fluorophenylamino)phenol], for which the inhibition in vivo at 100 mg/kg in test [1] is 57%. Further, in test [2], the inhibition at 1 µM amounted to 24% and the inhibition at 10 µM was found to be 36%. Turning to `CC(C)(C)c1cc(Nc2ccccc2Cl)cc(C(C)(C)C)c1O` [Compound 2], the inhibition in vivo at 100 mg/kg in test [1] amounted to 12%. In the case of `CC(C)(C)c1cc(Nc2ccccc2O)cc(C(C)(C)C)c1O` [Compound 3], the inhibition in vivo at 100 mg/kg in test [1] is 25%.

For the compound `CC(C)(C)c1cc(Nc2cccc(C(F)(F)F)c2)cc(C(C)(C)C)c1O` [Compound 4], the inhibition in vivo at 100 mg/kg in test [1] stood at 16%. As for `CC(C)(C)c1cc(Nc2ccc(CC(=O)O)cc2)cc(C(C)(C)C)c1O` [Compound 5], in test [2], the inhibition at 1 µM came out at 21% and the inhibition at 10 µM came out at 46%. As for `COc1ccc(Nc2cc(C(C)(C)C)c(O)c(C(C)(C)C)c2)cc1` [Compound 7], in test [1], the inhibition in vivo at 100 mg/kg is 41%. Besides, the inhibition at 10 µM in test [2] was 49%.

For the compound `CC(=O)c1ccc(Nc2cc(C(C)(C)C)c(O)c(C(C)(C)C)c2)cc1` [Compound 9], in test [2], the inhibition at 1 µM is 27% and the inhibition at 10 µM is 67%.

For `CSc1ccccc1Nc1cc(C(C)(C)C)c(O)c(C(C)(C)C)c1` [Compound 12], the inhibition in vivo at 100 mg/kg in test [1] is 41%. As to `CC(C)(C)c1cc(Nc2cc(Cl)ccc2O)cc(C(C)(C)C)c1O` [Compound 19], in test [2], the inhibition at 1 µM came to 37% and the inhibition at 10 µM was found to be 58%. For `Cc1ccc(Nc2cc(C(C)(C)C)c(O)c(C(C)(C)C)c2)cc1` [Compound 20], in that order: 16% and 51%. `CC(C)(C)c1cc(Nc2ccc(CCCC(=O)O)cc2)cc(C(C)(C)C)c1O` [Compound 22]: in test [2], the inhibition at 1 µM amounted to 28% and the inhibition at 10 µM was determined as 67%.

Turning to `CC(C)(C)c1cc(Nc2cccc(C(=O)O)c2)cc(C(C)(C)C)c1O` [Compound 24, 2,6-di-tert-butyl-4-(3-carboxyphenylamino)phenol], in test [2], the inhibition at 1 µM came out at 26% and the inhibition at 10 µM turned out to be 51%.

With `CC(C)(C)c1cc(Nc2ccccc2C(=O)O)cc(C(C)(C)C)c1O` [Compound 25, 2,6-di-tert-butyl-4-(2-carboxyphenylamino)phenol], the inhibition at 10 µM in test [2] stood at 66%.

Turning to `CC(C)(C)c1cc(Nc2ccc(C(=O)O)cc2)cc(C(C)(C)C)c1O` [Compound 26], in test [2], the inhibition at 1 µM came out at 33% and the inhibition at 10 µM is 71%.

As to `CC(C)(C)c1cc(Nc2ccc(C#N)cc2)cc(C(C)(C)C)c1O` [Compound 28, 2,6-di-tert-butyl-4-(4-cyanophenylamino)phenol], in test [1], the inhibition in vivo at 100 mg/kg was found to be 58%. As for `Cc1ccc(Nc2cc(C(C)(C)C)c(O)c(C(C)(C)C)c2)c(C(=O)O)c1` [Compound 29], in test [2], the inhibition at 1 µM was found to be 19% and the inhibition at 10 µM stood at 71%. For `CC(C)(C)c1cc(Nc2ccc(CCO)cc2)cc(C(C)(C)C)c1O` [Compound 33], in that order: 52% and 86%. With `CC(C)(C)c1cc(Nc2ccc(Cl)cc2CO)cc(C(C)(C)C)c1O` [Compound 38, 2,6-di-tert-butyl-4-(4-chloro-2-hydroxymethylphenylamino)phenol], the inhibition in vivo at 100 mg/kg in test [1] was found to be 79%.

With `CN(C)c1ccc(Nc2cc(C(C)(C)C)c(O)c(C(C)(C)C)c2)cc1` [Compound 42, 4-(4-dimethylaminophenylamino)-2,6-di-tert-butylphenol dihydrochloride], in test [2], the inhibition at 1 µM is 19% and the inhibition at 10 µM was 50%. For the compound `CC(C)(C)c1cc(Nc2ccccc2/C=C/C(=O)O)cc(C(C)(C)C)c1O` [Compound 48, 2-(3,5-di-tert-butyl-4-hydroxyphenylamino)cinnamic acid], the inhibition in vivo at 100 mg/kg in test [1] was 62%. Take `CCCCCC(=O)/C=C/c1cccc(Nc2cc(C(C)(C)C)c(O)c(C(C)(C)C)c2)c1` [Compound 51]: the inhibition in vivo at 100 mg/kg in test [1] was determined as 10%. As for `CCOC(=O)/C=C/c1cccc(Nc2cc(C)c(O)c(C)c2C)c1` [Compound 52, ethyl 3-(4-hydroxy-2,3,5-trimethylphenylamino)cinnamate hydrochloride], in test [2], the inhibition at 1 µM was 75% and the inhibition at 10 µM amounted to 95%. For `CCCCCCCCCNC(=O)c1ccc(Nc2cc(C(C)(C)C)c(O)c(C(C)(C)C)c2)cc1` [Compound 63], the inhibition in vivo at 100 mg/kg in test [1] stood at 29%.

Take `CCCCCCNC(=O)/C=C/c1cccc(Nc2cc(C(C)(C)C)c(O)c(C(C)(C)C)c2)c1` [Compound 66]: the inhibition in vivo at 100 mg/kg in test [1] was determined as 15%. Still for that read-out and setting: the figure for `CC(C)(C)c1cc(Nc2ccc(CC(=O)N3CCOCC3)cc2)cc(C(C)(C)C)c1O` [Compound 71] is 20%; for `CC(C)(C)c1cc(Nc2ccc(CC(=O)NN)cc2)cc(C(C)(C)C)c1O` [Compound 76, 2,6-di-tert-butyl-4-(4-hydrazinocarbonylmethylphenylamino)phenol] it is 47%. For the compound `Cc1cc(Nc2ccccc2)c2c(c1O)CCCC2` [Compound 80, 2-methyl-4-phenylamino-5,6,7,8-tetrahydronaphthol], in test [2], the inhibition at 1 µM was 78% and the inhibition at 10 µM was found to be 94%.

As for `Cc1ccc(Nc2cc(C)c(O)c(C)c2C)cc1` [Compound 81, 2,3,6-trimethyl-4-(4-methylphenylamino)phenol], in test [2], the inhibition at 1 µM stood at 91% and the inhibition at 10 µM is 95%. For `COC(=O)Cc1ccc(Nc2cc(C)c(O)c(C)c2C)cc1` [Compound 86, 4-(4-methoxycarbonylmethylphenylamino)-2,3,6-trimethylphenol], in that order: 93% and 92%.

`COC(=O)Cc1ccc(Nc2cc(C)c(O)c3c2CCCC3)cc1` [Compound 87, 2-methyl-4-(4-methoxycarbonylmethylphenylamino)-5,6,7,8-tetrahydronaphthol]: in test [2], the inhibition at 1 µM was found to be 89% and the inhibition at 10 µM was found to be 95%. As to `CC(C)(C)c1cc(Nc2cccc(C(N)=O)c2)cc(C(C)(C)C)c1O` [Compound 89], in test [1], the inhibition in vivo at 100 mg/kg is 31%.

For `COc1ccc(Nc2cc(C)c(O)c(C)c2C)cc1` [Compound 91, 2,3,6-trimethyl-4-(4-methoxyphenylamino)phenol], in test [2], the inhibition at 1 µM came to 95% and the inhibition at 10 µM was found to be 95%. As for `CC(C)(C)c1cc(Nc2ccc(S(C)(=O)=O)cc2)cc(C(C)(C)C)c1O` [Compound 92], in test [1], the inhibition in vivo at 100 mg/kg worked out at 35%. As to `CC(C)(C)c1cc(Nc2ccc(S(N)(=O)=O)cc2)cc(C(C)(C)C)c1O` [Compound 93], the inhibition in vivo at 100 mg/kg in test [1] amounted to 16%.

As to `Cc1cc(Nc2ccc(Cl)cc2)c(C)c(C)c1O` [Compound 94, 2,3,6-trimethyl-4-(4-chlorophenylamino)phenol], in test [2], the inhibition at 1 µM stood at 90% and the inhibition at 10 µM is 96%. In the case of `Cc1cc(Nc2ccc(C(=O)O)cc2)c(C)c(C)c1O` [Compound 102], in test [2], the inhibition at 1 µM stood at 42% and the inhibition at 10 µM is 90%.

In the case of `Cc1cc(Nc2cccc(CC(=O)O)c2)c(C)c(C)c1O` [Compound 103], in test [2], the inhibition at 1 µM was determined as 41% and the inhibition at 10 µM came to 91%.

Turning to `Cc1cc(Nc2ccc(CC(=O)O)cc2)c2c(c1O)CCCC2` [Compound 104], in test [2], the inhibition at 1 µM was 55% and the inhibition at 10 µM was 90%. Regarding `CC(Cc1ccc(O)c(O)c1)C(C)Cc1ccc(O)c(O)c1` (stereo not drawn) [NDGA, nordihydroguaiaretic acid, reference compound], the inhibition at 1 µM in test [2] was 45%. For `COc1ccc2c(c1)c(CC(=O)O)c(C)n2C(=O)c1ccc(Cl)cc1` [indomethacin, reference compound], the inhibition in vivo at 5 mg/kg in test [1] (Rattus norvegicus, 3 h) was found to be 62%.

The values are drawn from US4906662A, “Phenol derivatives, their preparation and the use thereof” (Otsuka Pharmaceutical Factory, Inc., priority 1986, dated 1990).
